Read-outs that look alike come from different tables or passages of the source.
Assays:
HCoV [1] = test: microbe, parasite or virus in culture; assay type: cell-based, human coronavirus
mock infected BHK cells = test: Cytotoxicity in mock infected BHK cells (MTT); assay type: cell-based, hamster; settings: Table 2B; MTT, 3 days
Description: (§1) To determine the cytotoxicity, cells were seeded at an initial density of 1×10^6 cells/mL in 96 well plates containing Minimum Essential Medium with Earles's salts (MEM-E), L-glutamine, 1 mM sodium pyruvate and 25 mg/L kanamycin, supplemented with 10% fetal bovine serum. Cell cultures were then incubated at 37° C. in a humidified 5% CO2 atmosphere in the absence or presence of serial dilutions of test compounds. Cell viability was determined by the MTT method.
(§2) Uninfected cells in the presence of serially diluted compound were used to assess the cytotoxicity of compounds.

[2] = Cytotoxicity in mock infected BHK cells (MTT); assay type: cell-based, hamster; settings: hamster, mock infected BHK cells; Table 2A; MTT, 3 days
Description: as §1, §2

[3] = test system: mock infected MES-1 cells; test: Cytotoxicity in mock infected MES-1 cells (MTT); assay type: cell-based; settings: Table 3B, 3 days
Description: as §1

HCoV [4] = test: microbe, parasite or virus in culture; assay type: cell-based, human coronavirus; settings: unidentified human coronavirus, 72 h
[5] = Cytotoxicity in mock infected MES-1 cells (MTT); assay type: cell-based; settings: mock infected MES-1 cells, Table 3A
Description: as §1

nsp12 NiRAN active-site = nsp12 NiRAN active-site (Severe acute respiratory syndrome coronavirus, UniProt P0C6X7); test: biochemical; assay type: biochemical, SARS-CoV
[6] = unidentified human coronavirus, BHK-21, 72 h

With `CNc1nc(N)nc2c1ncn2[C@@H]1O[C@H](CO[P@](=O)(N[C@@H](C)C(=O)OC(C)C)Oc2ccccc2)[C@@H](O)[C@@]1(C)F` [drawing 240] as the compound, how does the EC50 (HCoV [1]) read?
Its EC50 is 2.9 µM.

What about the CC50 (mock infected BHK cells) of the same compound?
Its CC50 is over 100 µM.

Which CC50 (mock infected BHK cells) does the source give for `CC(C)[C@H](N)C(=O)O[C@@H]1[C@@H](CO)O[C@@H](n2ccc(N)nc2=O)[C@]1(C)O` [drawing 245] here?
The CC50 was over 100 µM.

For `CC(C)(CO)C(=O)SCCOP(=O)(NCc1ccccc1)OC[C@H]1O[C@@H](n2cnc3c(=O)[nH]c(N)nc32)[C@](C)(O)[C@@H]1O` (stereo partly shown) [drawing 243], which EC50 (HCoV [1]) is on record?
Its EC50 is 1.9 µM.

And the CC50 (mock infected BHK cells)?
Its CC50 is 65 µM.

Which EC50 (HCoV [1]; [6]) does the source give for `CCC(CC)COC(=O)[C@H](C)N[P@](=O)(OC[C@H]1O[C@@](C#N)(c2ccc3c(N)ncnn23)[C@H](O)[C@@H]1O)Oc1ccccc1` [drawing 237] here?
Its EC50 is 7.2 µM.

What about the CC50 at 3 days [2] of the same compound?
The CC50 at 3 days was over 100 µM.

Which results are given for `CC(C)OC(=O)[C@H](C)N[P@](=O)(OCC1O[C@@H](n2ccc(=O)[nH]c2=O)[C@](C)(F)[C@@H]1O)Oc1ccccc1` (stereo partly shown) [drawing 234]?
EC50 (HCoV [1]; [6]): > 100 µM; CC50 at 3 days [2]: > 100 µM

What does the source list for `CC(C)[C@H](N)C(=O)O[C@@H]1[C@@H](CO)O[C@@H](n2ccc(N)nc2=O)[C@]1(C)O` [drawing 238]?
EC50 (HCoV [1]; [6]): > 100 µM; CC50 at 3 days [2]: > 100 µM

Which EC50 (HCoV [1]; [6]) does the source give for `CNc1nc(N)nc2c1ncn2[C@@H]1O[C@H](CO[P@@](=O)(N[C@@H](C)C(=O)OC(C)C)Oc2ccccc2)[C@@H](O)[C@@]1(C)F` [drawing 232] here?
Its EC50 is 1.6 µM.

What about the CC50 at 3 days [2] of the same compound?
Its CC50 at 3 days is over 100 µM.

Which EC50 (HCoV [1]) does the source give for `CNc1nc(N)nc2c1ncn2[C@@H]1O[C@H](CO[P@@](=O)(N[C@@H](C)C(=O)OC(C)C)Oc2ccccc2)[C@@H](O)[C@@]1(C)F` [drawing 239] here?
The EC50 was 2 µM.

And the CC50 (mock infected BHK cells)?
The CC50 was over 100 µM.

With `CC(C)[C@H](N)C(=O)O[C@@H]1[C@@H](CO)O[C@@H](n2ccc(N)nc2=O)[C@]1(C)O` [drawing 259] as the compound, how does the CC50 [3] read?
The CC50 was over 100 µM.

What does the source list for `CC(C)(CO)C(=O)SCCOP(=O)(NCc1ccccc1)OC[C@H]1O[C@@H](n2cnc3c(=O)[nH]c(N)nc32)[C@](C)(O)[C@@H]1O` (stereo partly shown) [drawing 236]?
EC50 (HCoV [1]; [6]): 1.7 µM; CC50 at 3 days [2]: 65 µM

For `CC(C)OC(=O)[C@H](C)N[P@](=O)(OCC1O[C@@H](n2ccc(=O)[nH]c2=O)[C@](C)(F)[C@@H]1O)Oc1ccccc1` (stereo partly shown) [drawing 248], which EC50 (HCoV [4]) is on record?
Its EC50 is over 100 µM.

And the CC50 at 3 days [5]?
Its CC50 at 3 days is over 100 µM.

Which EC50 (HCoV [4]) does the source give for `CC(C)[C@H](N)C(=O)O[C@@H]1[C@@H](CO)O[C@@H](n2ccc(N)nc2=O)[C@]1(C)O` [drawing 252] here?
Its EC50 is over 100 µM.

What about the CC50 at 3 days [5] of the same compound?
The CC50 at 3 days was over 100 µM.

For `CCC(CC)COC(=O)[C@H](C)N[P@](=O)(OC[C@H]1O[C@@](C#N)(c2ccc3c(N)ncnn23)[C@H](O)[C@@H]1O)Oc1ccccc1` [drawing 244], which EC50 (HCoV [1]) is on record?
Its EC50 is 7 µM.

And the CC50 (mock infected BHK cells)?
The CC50 was over 100 µM.

Which EC50 (HCoV [4]) does the source give for `CC(C)(CO)C(=O)SCCOP(=O)(NCc1ccccc1)OC[C@H]1O[C@@H](n2cnc3c(=O)[nH]c(N)nc32)[C@](C)(O)[C@@H]1O` (stereo partly shown) [drawing 250] here?
Its EC50 is 1.9 µM.

What about the CC50 at 3 days [5] of the same compound?
The CC50 at 3 days was 82 µM.

Which results are given for `CNc1nc(N)nc2c1ncn2[C@@H]1O[C@H](CO[P@@](=O)(N[C@@H](C)C(=O)OC(C)C)Oc2ccccc2)[C@@H](O)[C@@]1(C)F` [drawing 246]?
EC50 (HCoV [4]): 1.6 µM; CC50 at 3 days [5]: > 100 µM

With `CNc1nc(N)nc2c1ncn2[C@@H]1O[C@H](CO[P@](=O)(N[C@@H](C)C(=O)OC(C)C)Oc2ccccc2)[C@@H](O)[C@@]1(C)F` [drawing 247] as the compound, how does the EC50 (HCoV [4]) read?
Its EC50 is 2 µM.

What about the CC50 at 3 days [5] of the same compound?
The CC50 at 3 days was over 100 µM.

For `CC(C)OC(=O)[C@H](C)N[P@](=O)(OCC1O[C@@H](n2ccc(=O)[nH]c2=O)[C@](C)(F)[C@@H]1O)Oc1ccccc1` (stereo partly shown) [drawing 241], which EC50 (HCoV [1]) is on record?
The EC50 was over 100 µM.

What about the CC50 (mock infected BHK cells) of the same compound?
Its CC50 is over 100 µM.

Which “inhibition of nsp8 labeling / transfer of UTP to nsp8” value (nsp12 NiRAN active-site) does the source give for `Cn1c[n+]([C@@H]2O[C@H](COP(=O)([O-])OP(=O)(O)OP(=O)(O)O)[C@@H](O)[C@H]2O)c2nc(N)[nH]c(=O)c21` [^m7GTP] here?
The value was “poorly inhibit”.

With `CNc1nc(N)nc2c1ncn2[C@@H]1O[C@H](CO[P@](=O)(N[C@@H](C)C(=O)OC(C)C)Oc2ccccc2)[C@@H](O)[C@@]1(C)F` [drawing 233] as the compound, how does the EC50 (HCoV [1]; [6]) read?
Its EC50 is 2.5 µM.

And the CC50 at 3 days [2]?
The CC50 at 3 days was over 100 µM.

Which results are given for `CCC(CC)COC(=O)[C@H](C)N[P@](=O)(OC[C@H]1O[C@@](C#N)(c2ccc3c(N)ncnn23)[C@H](O)[C@@H]1O)Oc1ccccc1` [drawing 251]?
EC50 (HCoV [4]): 6 µM; CC50 at 3 days [5]: > 100 µM

From patent publication US20230364121A1 (priority 2020, published 2023)
